This assay has as its target T1, BTK (Homo sapiens, UniProt Q06187).
T1 construct: purchased Thermo Fisher Scientific (Life Technologies) SelectScreen
In words: SelectScreen Z'LYTE. It is filed as biochemical. The procedure, abridged:
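SelectScreen broad panel; activity (Z'LYTE, Adapta) plus binding formats. ATP: Km app for CSF1R Z'LYTE; 10 for CAMK1 Adapta. Readout = % per kinase.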

T1 sequence (Q06187 whole entry): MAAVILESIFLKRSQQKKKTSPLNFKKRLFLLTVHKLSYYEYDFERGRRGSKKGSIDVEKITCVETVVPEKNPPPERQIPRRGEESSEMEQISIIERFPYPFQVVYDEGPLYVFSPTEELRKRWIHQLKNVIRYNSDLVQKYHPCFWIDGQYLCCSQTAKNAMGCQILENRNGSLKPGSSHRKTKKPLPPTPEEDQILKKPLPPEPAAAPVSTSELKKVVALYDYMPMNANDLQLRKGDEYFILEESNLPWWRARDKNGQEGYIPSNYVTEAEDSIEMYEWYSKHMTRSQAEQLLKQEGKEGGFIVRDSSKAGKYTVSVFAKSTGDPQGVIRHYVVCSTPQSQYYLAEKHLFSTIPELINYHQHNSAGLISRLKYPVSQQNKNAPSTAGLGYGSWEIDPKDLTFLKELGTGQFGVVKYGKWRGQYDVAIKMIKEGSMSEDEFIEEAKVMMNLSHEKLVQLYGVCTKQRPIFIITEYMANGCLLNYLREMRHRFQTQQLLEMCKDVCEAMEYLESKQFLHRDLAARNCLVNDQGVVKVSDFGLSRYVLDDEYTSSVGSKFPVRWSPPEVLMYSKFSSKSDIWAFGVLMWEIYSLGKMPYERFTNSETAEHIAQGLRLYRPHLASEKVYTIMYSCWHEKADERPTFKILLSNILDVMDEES

Turning to `CN(C(=O)CN1CCOCC1)c1ccc2sc3c(-c4cccc5c(=O)cc(N6CC7CCC(C6)O7)oc45)cccc3c2c1` [NU5455], the inhibition at 1 µM is -2%.

Usually inhibition stands for the drop in the measured response relative to a control, in per cent.

The values are drawn from PMC6934184, “Selective DNA-PKcs inhibition extends the therapeutic index of localized radiotherapy and chemotherapy” (The Journal of Clinical Investigation, 2019).
